Patent US7666890B2, “Synthesis and herbicidal activity of 1- (2-substituted benzo[d]thiazol-5-yl)-1H-1,2,4-triazol-5(4H)-one derivatives” (Huazhong Normal University, priority 2007, dated 2010)

Legend:
Test in all cases: Test of herbicidal activities (greenhouse pot method)
Assay type in all cases: in vivo
Conditions in all cases: single dose 300 g ai./h, treated before/after germination, 15 days later, greenhouse pot
Echinochloa crusgalli = test system: Echinochloa crusgalli
Summary of the method: (§1)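 Greenhouse pot test on weeds grown in mixed garden/mountain/humus soil at 15-30° C; pre- and post-emergence spray at a single dose of 300 g ai./h via automatic spraying tower (0.2 MPa). Inhibition scored after 15 days into five levels A (90-100%) to E (<50%); triplicate with blank control.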

Setaria viridis = test system: Setaria viridis
Summary of the method: as §1

Amaranthus retroflexus = test system: Amaranthus retroflexus
Summary of the method: as §1

Chenopodium album = test system: Chenopodium album
Summary of the method: as §1

Digiatria sanguinalis = test system: Digiatria sanguinalis
Summary of the method: as §1

Brassica juncea = test system: Brassica juncea
Summary of the method: as §1

Row | SMILES | Herbicidal activity Echinochloa crusgalli (inhibition level) (Echinochloa crusgalli) | Herbicidal activity Setaria viridis (inhibition level) (Setaria viridis) | Herbicidal activity Amaranthus retroflexus (inhibition level) (Amaranthus retroflexus) | Herbicidal activity Chenopodium album (inhibition level) (Chenopodium album) | Herbicidal activity Digiatria sanguinalis (inhibition level) (Digiatria sanguinalis) | Herbicidal activity Brassica juncea (inhibition level) (Brassica juncea)
1 | CCOC(=O)CS(=O)(=O)c1nc2cc(-n3nc(C)n(C(F)F)c3=O)c(Br)cc2s1 [Compound 54] | B (80 ≦ B < 90%) | D (50 ≦ D < 60%) | B (80 ≦ B < 90%) | C (60 ≦ C < 80%) | C (60 ≦ C < 80%) | A (90 ≦ A ≦ 100%)
2 | Cc1nn(-c2cc3nc(SCc4cccs4)sc3cc2F)c(=O)n1C(F)F [Compound 73] | B (80 ≦ B < 90%) | B (80 ≦ B < 90%) | A (90 ≦ A ≦ 100%) | A (90 ≦ A ≦ 100%) | A (90 ≦ A ≦ 100%) | B (80 ≦ B < 90%)
3 | CCS(=O)(=O)c1nc2cc(-n3nc(C)n(C(F)F)c3=O)c(F)cc2s1 [Compound 56] | B (80 ≦ B < 90%) | D (50 ≦ D < 60%) | A (90 ≦ A ≦ 100%) | C (60 ≦ C < 80%) | D (50 ≦ D < 60%) | A (90 ≦ A ≦ 100%)
4 | CCCCS(=O)(=O)c1nc2cc(-n3nc(C)n(C(F)F)c3=O)c(Cl)cc2s1 [Compound 69] | A (90 ≦ A ≦ 100%) | B (80 ≦ B < 90%) | A (90 ≦ A ≦ 100%) | C (60 ≦ C < 80%) | B (80 ≦ B < 90%) | B (80 ≦ B < 90%)
5 | Cc1ccc(CSc2nc3cc(-n4nc(C)n(C(F)F)c4=O)c(F)cc3s2)cc1 [Compound 15] | B (80 ≦ B < 90%) | B (80 ≦ B < 90%) | A (90 ≦ A ≦ 100%) | B (80 ≦ B < 90%) | C (60 ≦ C < 80%) | A (90 ≦ A ≦ 100%)
6 | CCCCSc1nc2cc(-n3nc(C(F)(F)F)n(C(F)F)c3=O)c(Cl)cc2s1 [Compound 126] | B (80 ≦ B < 90%) | C (60 ≦ C < 80%) | B (80 ≦ B < 90%) | B (80 ≦ B < 90%) | A (90 ≦ A ≦ 100%) | A (90 ≦ A ≦ 100%)
7 | Cc1nn(-c2cc3nc(SCc4ccccc4)sc3cc2Cl)c(=O)n1C(F)F [Compound 2] | C (60 ≦ C < 80%) | B (80 ≦ B < 90%) | A (90 ≦ A ≦ 100%) | E (E < 50%) | C (60 ≦ C < 80%) | B (80 ≦ B < 90%)
8 | CCOC(=O)C(C)S(=O)(=O)c1nc2cc(-n3nc(C)n(C(F)F)c3=O)c(F)cc2s1 (stereo not drawn) [Compound 61] | C (60 ≦ C < 80%) | C (60 ≦ C < 80%) | A (90 ≦ A ≦ 100%) | B (80 ≦ B < 90%) | A (90 ≦ A ≦ 100%) | A (90 ≦ A ≦ 100%)
9 | Cc1nn(-c2cc3nc(S(=O)(=O)Cc4cccc(F)c4)sc3cc2Cl)c(=O)n1C(F)F [Compound 44] | C (60 ≦ C < 80%) | B (80 ≦ B < 90%) | B (80 ≦ B < 90%) | C (60 ≦ C < 80%) | C (60 ≦ C < 80%) | C (60 ≦ C < 80%)
10 | CCOC(=O)CSc1nc2cc(-n3nc(C)n(C(F)F)c3=O)c(Br)cc2s1 [Compound 82] | A (90 ≦ A ≦ 100%) | A (90 ≦ A ≦ 100%) | A (90 ≦ A ≦ 100%) | C (60 ≦ C < 80%) | A (90 ≦ A ≦ 100%) | B (80 ≦ B < 90%)
11 | CCCCCC[S+]([O-])c1nc2cc(-n3nc(C)n(C(F)F)c3=O)c(Cl)cc2s1 (stereo not drawn) [Compound 114] | B (80 ≦ B < 90%) | B (80 ≦ B < 90%) | A (90 ≦ A ≦ 100%) | A (90 ≦ A ≦ 100%) | A (90 ≦ A ≦ 100%) | A (90 ≦ A ≦ 100%)
12 | Cc1nn(-c2cc3nc(S(=O)(=O)Cc4cccc(Cl)c4)sc3cc2F)c(=O)n1C(F)F [Compound 53] | C (60 ≦ C < 80%) | D (50 ≦ D < 60%) | B (80 ≦ B < 90%) | B (80 ≦ B < 90%) | B (80 ≦ B < 90%) | A (90 ≦ A ≦ 100%)
13 | CCOC(=O)C(C)Sc1nc2cc(-n3nc(C)n(C(F)F)c3=O)c(Br)cc2s1 (stereo not drawn) [Compound 87] | B (80 ≦ B < 90%) | A (90 ≦ A ≦ 100%) | B (80 ≦ B < 90%) | B (80 ≦ B < 90%) | B (80 ≦ B < 90%) | A (90 ≦ A ≦ 100%)
14 | Cc1nn(-c2cc3nc(S(=O)(=O)Cc4ccccc4)sc3cc2F)c(=O)n1C(F)F [Compound 51] | C (60 ≦ C < 80%) | A (90 ≦ A ≦ 100%) | A (90 ≦ A ≦ 100%) | B (80 ≦ B < 90%) | A (90 ≦ A ≦ 100%) | B (80 ≦ B < 90%)
15 | CC[S+]([O-])c1nc2cc(-n3nc(C)n(C(F)F)c3=O)c(Cl)cc2s1 (stereo not drawn) [Compound 115] | C (60 ≦ C < 80%) | B (80 ≦ B < 90%) | B (80 ≦ B < 90%) | D (50 ≦ D < 60%) | B (80 ≦ B < 90%) | A (90 ≦ A ≦ 100%)
16 | Cc1nn(-c2cc3nc([S+](C)[O-])sc3cc2Br)c(=O)n1C(F)F (stereo not drawn) [Compound 108] | A (90 ≦ A ≦ 100%) | B (80 ≦ B < 90%) | B (80 ≦ B < 90%) | E (E < 50%) | B (80 ≦ B < 90%) | A (90 ≦ A ≦ 100%)
17 | Cc1nn(-c2cc3nc([S+]([O-])Cc4cccc(Cl)c4)sc3cc2Cl)c(=O)n1C(F)F (stereo not drawn) [Compound 107] | B (80 ≦ B < 90%) | D (50 ≦ D < 60%) | A (90 ≦ A ≦ 100%) | B (80 ≦ B < 90%) | B (80 ≦ B < 90%) | A (90 ≦ A ≦ 100%)
18 | C=CCSc1nc2cc(-n3nc(C)n(C(F)F)c3=O)c(F)cc2s1 [Compound 94] | A (90 ≦ A ≦ 100%) | A (90 ≦ A ≦ 100%) | B (80 ≦ B < 90%) | B (80 ≦ B < 90%) | A (90 ≦ A ≦ 100%) | B (80 ≦ B < 90%)
